# According to patent US5037830A, “Novel thiouracyl derivatives, pharmaceutical compositions containing them and process for preparing same” (Richter Gedeon Vegyeszeti Gyar RT, priority 1989, dated 1991):
# Like-named read-outs stand apart in the source and are kept apart here.
# Assays:
# [1] = tested on: spontaneous gastric acid secretion; test: Gastric acid secretion-inhibiting effect according to Shay's method; format: in vivo, female OFA rats; settings: for Gastric acid, change / Gastric juice, change: vs control; for Gastric acid, treated: titration with 0.1N NaOH
# Protocol: After being starved for 24 hours, female OFA rats weighing 130 to 160 g were orally treated with the compounds to be tested. (15 animals were used for each dose.) One hour later laparotomy and pylorus ligature were carried out under ether anaesthesia according to Shay [Gastroenterology 5, 43 (1945)]. After 5 hours the animals were killed by an overdose of ether, their stomaches were excised and the volume and acid content of the gastric juice were determined. The acid was measured by titration with 0.1N NaOH, by using Topfer's indicator.
# [2] = tested on: histamine-induced gastric acid secretion; test: Inhibition of the histamine-induced gastric acid secretion in rats; format: in vivo, male OFA rats; settings: for Gastric acid, change / Gastric juice, change: vs control; for Gastric juice, treated: histamine 5 mg/kg/hour;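 as to Gastric acid, treated: dosed 30 min before a 5 hour experiment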
# Protocol: (§1) After being starved for 24 hours, male OFA rats weighing 250 to 320 g were anaestethized by 40% urethane (0.5 ml/100 g), then the trachea and jugular vein were cannulated (10 animals were used for each dose). A glass cannula was inserted to the stomach from the direction of the pylorus. The stomach was washed with lukewarm water and then purified by air blown through. The gastric acid secretion was induced by an infusion of histamine (5 mg/kg/hour), or pentagastrin (0.05 mg/kg/hour) or carbachol (0.01 mg/kg/hour), respectively. […]
# [3] = tested on: pentagastrin-induced gastric acid secretion; test: Inhibition of the pentagastrin-induced gastric acid secretion in rats; format: in vivo, male OFA rats; settings: for Gastric acid, change / Gastric juice, change: vs control; for Gastric juice, treated: pentagastrin 0.05 mg/kg/hour;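 as to Gastric acid, treated: dosed 30 min before a 5 hour experiment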
# Protocol: as §1
# [4] = tested on: carbachol-induced gastric acid secretion; test: Inhibition of the carbachol-induced gastric acid secretion in rats; format: in vivo, male OFA rats; settings: for Gastric acid, change / Gastric juice, change: vs control; for Gastric juice, treated: carbachol 0.01 mg/kg/hour;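 as to Gastric acid, treated: dosed 30 min before a 5 hour experiment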
# Protocol: as §1
# [5] = tested on: gastric ulcer after pylorus ligature; test: Gastric ulcer-inhibiting effect in rats operated according to Shay's method; format: in vivo, female OFA rats; settings: for ED50: Rattus norvegicus, po, 18 h, p.o.
# Protocol: Female OFA rats starved for 24 hours weighing 150 to 160 g were used. (The animals were allowed to drink water ad libitum). The animals were orally treated with the substance to be tested and after 1 hour laparotomy and pylorus ligature according to Shay [Gastroenterology 5, 43 (1945)] were performed under ether anaesthesia. After 18 hours the number and size of ulcers formed on the membranaceous part of the stomach were examined under microscope. The evaluation was made in relation to the control group and the ED50 values were determined. The sizes of the ulcers were expressed as score values from 0.5 to 32.
# [6] = tested on: reserpine-induced gastric ulcer; test: Inhibition of the reserpine-induced gastric ulcer; format: in vivo, female OFA rats; settings: for ED50: Rattus norvegicus, po, 18 h, p.o., reserpine 5 mg/kg s.c.
# Protocol: After being starved for 24 hours, female OFA rats were orally treated with the compounds to be tested and then subcutaneously (s.c.) with 5 mg/kg of reserpine after 1 hour. After 18 hours the animals were killed and their stomach were examined under microscope. The evaluation was performed as described under the preceding paragraph 1.
# [7] = tested on: gastric ulcer induced by Aspirin plus stress; test: Inhibition of the gastric ulcer induced by Aspirin plus stress; format: in vivo, female RG-Wistar rats
# Protocol: After being starved for 24 hours, female RG-Wistar rats weighing 120 to 150 g were orally treated with the compound to be tested and then orally with Aspirin. The animals were sensitized by the aspirin pretreatment and a strong ulceration was induced in the glandular part of stomach of the animals by a subsequent stress (fastening, ducking in water of 22° C. temperature). The ulceration was evaluated as score values from 0 to 2.
# [8] = tested on: acetic acid-induced chronic ulcer; test: Recovery-influencing effect on the acetic acid-induced chronic ulcer; format: in vivo, female RG-Wistar rats
# Protocol: After anaesthesia by ether and laparotomy, 50 μl of 20% acetic acid were injected into the stomach wall of female RG-Wistar rats. After 5 days the animals were orally treated with the compounds to be tested daily twice for 15 days. On the 16th day the animals were killed by ether and the size of the ulcers appearing on the stomach was measured. The grade of recovery was defined in relation to the control group.
# Acute toxicity, mouse = settings: in vivo
# Protocol: (§2) These investigations were carried out in OFI mice and OFA rats after starving for 24 hours. Ten animals were used for each dose. The number of doses was 3 or 4.
# Acute toxicity, rat = settings: in vivo
# Protocol: as §2
# [9] = read-out: ED50 related to the number of ulcers
# [10] = read-out: ED50 related to the occurrance of ulcers
# [11] = read-out: ED50 related to the severity of ulcers
compound,measurement,setting,value
"Cc1cc(=O)[nH]c(SCc2ccccc2N(C)C)n1 [Example 1, 2-(2-dimethylaminobenzyl)thio-6-methyl-4(3H)-pyrimidinone]","Gastric juice, treated",[1]; 10 mg/kg p.o.,6.76 mL
same,"Gastric acid, change",[1]; 10 mg/kg p.o.,-28.2%
same,"Gastric juice, change",[1]; 10 mg/kg p.o.,-10.6%
same,"Gastric acid, treated",[1]; 10 mg/kg p.o.,2.45 mL
same,"Gastric juice, treated",[1]; 20 mg/kg p.o.,6.15 mL
same,"Gastric acid, change",[1]; 20 mg/kg p.o.,-65.1%
same,"Gastric juice, change",[1]; 20 mg/kg p.o.,-12.9%
same,"Gastric acid, treated",[1]; 20 mg/kg p.o.,1.17 mL
same,"Gastric juice, treated",[1]; 40 mg/kg p.o.,4.51 mL
same,"Gastric acid, change",[1]; 40 mg/kg p.o.,-92.4%
same,"Gastric juice, change",[1]; 40 mg/kg p.o.,-34.4%
same,"Gastric acid, treated",[1]; 40 mg/kg p.o.,0.22 mL
same,"inhibitor effect on gastric acid secretion, in words",[1]; compared with reference drugs,equiactive to the NC-1300 reference drug
same,ED50,"[1]; po, gastric acid, Shay rat",15 mg/kg
same,"Gastric acid, treated",[2]; 6.25 mg/kg i.p.,3.41 mL
same,"Gastric acid, change",[2]; 6.25 mg/kg i.p.,-42%
same,"Gastric juice, change",[2]; 6.25 mg/kg i.p.,-44%
same,"Gastric juice, treated",[2]; 6.25 mg/kg i.p.,2.14 mL
same,"Gastric acid, treated",[2]; 12.5 mg/kg i.p.,1.90 mL
same,"Gastric acid, change",[2]; 12.5 mg/kg i.p.,-68%
same,"Gastric juice, change",[2]; 12.5 mg/kg i.p.,-64%
same,"Gastric juice, treated",[2]; 12.5 mg/kg i.p.,1.38 mL
same,"Gastric acid, treated",[2]; 25 mg/kg i.p.,0.66 mL
same,"Gastric acid, change",[2]; 25 mg/kg i.p.,-89%
same,"Gastric juice, change",[2]; 25 mg/kg i.p.,-87%
same,"Gastric juice, treated",[2]; 25 mg/kg i.p.,0.49 mL
same,ED50,"[2]; Rattus norvegicus, ip, histamine-induced, dose column i.p.",6.8 mg/kg
same,"Gastric acid, treated",[3]; 6.25 mg/kg i.p.,1.79 mL
same,"Gastric acid, change",[3]; 6.25 mg/kg i.p.,-34%
same,"Gastric juice, change",[3]; 6.25 mg/kg i.p.,-31%
same,"Gastric juice, treated",[3]; 6.25 mg/kg i.p.,1.26 mL
same,"Gastric acid, treated",[3]; 12.5 mg/kg i.p.,1.21 mL
same,"Gastric acid, change",[3]; 12.5 mg/kg i.p.,-55%
same,"Gastric juice, change",[3]; 12.5 mg/kg i.p.,-51%
same,"Gastric juice, treated",[3]; 12.5 mg/kg i.p.,0.90 mL
same,"Gastric acid, treated",[3]; 25 mg/kg i.p.,0.51 mL
same,"Gastric acid, change",[3]; 25 mg/kg i.p.,-81%
same,"Gastric juice, change",[3]; 25 mg/kg i.p.,-78%
same,"Gastric juice, treated",[3]; 25 mg/kg i.p.,0.41 mL
same,ED50,"[3]; Rattus norvegicus, ip, pentagastrin-induced, dose column i.p.",9.5 mg/kg
same,"Gastric acid, treated",[4]; 12.5 mg/kg i.p.,2.14 mL
same,"Gastric acid, change",[4]; 12.5 mg/kg i.p.,-22%
same,"Gastric juice, change",[4]; 12.5 mg/kg i.p.,-20%
same,"Gastric juice, treated",[4]; 12.5 mg/kg i.p.,1.65 mL
same,"Gastric acid, treated",[4]; 20 mg/kg i.p.,0.90 mL
same,"Gastric acid, change",[4]; 20 mg/kg i.p.,-67%
same,"Gastric juice, change",[4]; 20 mg/kg i.p.,-66%
same,"Gastric juice, treated",[4]; 20 mg/kg i.p.,0.71 mL
same,"Gastric acid, treated",[4]; 25 mg/kg i.p.,0.37 mL
same,"Gastric acid, change",[4]; 25 mg/kg i.p.,-87%
same,"Gastric juice, change",[4]; 25 mg/kg i.p.,-83%
same,"Gastric juice, treated",[4]; 25 mg/kg i.p.,0.34 mL
same,ED50,"[4]; Rattus norvegicus, ip, carbachol-induced, dose column i.p.",16.5 mg/kg
same,ED50,[5]; [9],3.3 mg/kg
same,ED50,[5]; [10],9 mg/kg
same,ED50,[5]; [11],3.7 mg/kg
same,"ulcer inhibition, in words",[5]; compared with reference drugs,significantly stronger inhibited
same,ED50,[6]; [9],16 mg/kg
same,ED50,[6]; [10],18 mg/kg
same,ED50,[6]; [11],15 mg/kg
same,"ulcer inhibition, in words",[6]; compared with reference drugs,significantly stronger inhibited
same,ED50,"[7]; Rattus norvegicus, po, Aspirin plus stress",7.3 mg/kg
same,"ulcer inhibition, in words",[7]; compared with reference drugs,significantly stronger inhibited
same,increase in the recovery,"[8]; 15 mg/kg oral dose, daily twice for 15 days",45%
same,"recovery from developed gastric ulcers, in words",[8]; compared with reference drug,better results were achieved in the recovery from developed gastric ulcers
same,LD50,"Acute toxicity, mouse; ip, female mouse",365 mg/kg
same,LD50,"Acute toxicity, mouse; ip, male mouse",360 mg/kg
same,LD50,"Acute toxicity, mouse; po, female mouse, precision restricted by solubility",> 1000 mg/kg
same,LD50,"Acute toxicity, mouse; po, male mouse, precision restricted by solubility",> 1000 mg/kg
same,LD50,"Acute toxicity, rat; ip, female rat",430 mg/kg
same,LD50,"Acute toxicity, rat; ip, male rat",450 mg/kg
same,LD50,"Acute toxicity, rat; po, female rat, precision restricted by solubility",2400 mg/kg
same,LD50,"Acute toxicity, rat; po, male rat, precision restricted by solubility",> 3000 mg/kg
